Assay results: the NIST ThermoML archive (doi:10.1016/j.fluid.2017.09.003)

Test: mn = molality of the nth substance listed, in mol/kg
Conditions: Liquid, isochoric method

CCCCn1cc[n+](C)c1.O=S(=O)([O-])C(F)(F)F [1-butyl-3-methylimidazolium trifluoromethanesulfonate] + O=C=O
Conditions | molar volume [m3/mol]
303.15 K, 233.6 kPa, m2 = 0.1586 | 0.0002163
303.15 K, 712 kPa, m2 = 0.5016 | 0.0002044
303.15 K, 1209.3 kPa, m2 = 0.8577 | 0.0001937
303.15 K, 1706.3 kPa, m2 = 1.236 | 0.0001836
303.15 K, 2180.4 kPa, m2 = 1.637 | 0.0001742
303.15 K, 2663.3 kPa, m2 = 2.038 | 0.000166
303.15 K, 3188 kPa, m2 = 2.481 | 0.000158
313.15 K, 244.1 kPa, m2 = 0.1345 | 0.0002188
313.15 K, 713.2 kPa, m2 = 0.418 | 0.0002088
313.15 K, 1212.5 kPa, m2 = 0.7087 | 0.0001997
313.15 K, 1722.9 kPa, m2 = 1.029 | 0.0001907
313.15 K, 2194.4 kPa, m2 = 1.329 | 0.0001831
313.15 K, 2669.6 kPa, m2 = 1.632 | 0.0001761
313.15 K, 3135.3 kPa, m2 = 1.944 | 0.0001696
323.15 K, 239.4 kPa, m2 = 0.1102 | 0.0002213
323.15 K, 707.7 kPa, m2 = 0.3453 | 0.0002129
323.15 K, 1223.5 kPa, m2 = 0.5993 | 0.0002047
323.15 K, 1721.4 kPa, m2 = 0.8739 | 0.0001966
323.15 K, 2204.9 kPa, m2 = 1.131 | 0.0001897
323.15 K, 2697.2 kPa, m2 = 1.397 | 0.0001832
323.15 K, 3198.1 kPa, m2 = 1.707 | 0.0001762
333.15 K, 239.9 kPa, m2 = 0.0968 | 0.0002234
333.15 K, 756.2 kPa, m2 = 0.3124 | 0.0002157
333.15 K, 1259.5 kPa, m2 = 0.5379 | 0.0002083
333.15 K, 1767.4 kPa, m2 = 0.7626 | 0.0002015
333.15 K, 2242.8 kPa, m2 = 0.9814 | 0.0001953
333.15 K, 2734.2 kPa, m2 = 1.226 | 0.000189
333.15 K, 3236.7 kPa, m2 = 1.474 | 0.0001831
343.15 K, 250.3 kPa, m2 = 0.0877 | 0.0002253
343.15 K, 746.9 kPa, m2 = 0.2655 | 0.0002189
343.15 K, 1255 kPa, m2 = 0.4535 | 0.0002126
343.15 K, 1759 kPa, m2 = 0.6555 | 0.0002063
343.15 K, 2265.7 kPa, m2 = 0.8561 | 0.0002004
343.15 K, 2732.5 kPa, m2 = 1.072 | 0.0001946
343.15 K, 3216 kPa, m2 = 1.276 | 0.0001895

CCCCCC[n+]1ccn(C)c1.O=S(=O)([N-]S(=O)(=O)C(F)(F)F)C(F)(F)F + O=C=O
Conditions | molar volume [m3/mol]
303.15 K, 228.1 kPa, m2 = 0.1549 | 0.0003078
303.15 K, 400.5 kPa, m2 = 0.277 | 0.0002962
303.15 K, 642.1 kPa, m2 = 0.4471 | 0.0002815
303.15 K, 786.2 kPa, m2 = 0.5432 | 0.0002738
303.15 K, 1036.5 kPa, m2 = 0.726 | 0.0002604
303.15 K, 1399.2 kPa, m2 = 0.9896 | 0.000243
303.15 K, 1689 kPa, m2 = 1.194 | 0.0002316
303.15 K, 1806.5 kPa, m2 = 1.29 | 0.0002265
303.15 K, 2065.3 kPa, m2 = 1.48 | 0.000217
303.15 K, 2289.9 kPa, m2 = 1.65 | 0.0002093
303.15 K, 2463.9 kPa, m2 = 1.782 | 0.0002037
303.15 K, 2819.3 kPa, m2 = 2.069 | 0.0001926
303.15 K, 3076.9 kPa, m2 = 2.267 | 0.0001856
303.15 K, 3555.5 kPa, m2 = 2.65 | 0.0001736
313.15 K, 337.1 kPa, m2 = 0.1947 | 0.0003066
313.15 K, 699.4 kPa, m2 = 0.4069 | 0.0002879
313.15 K, 1209.5 kPa, m2 = 0.7242 | 0.0002644
313.15 K, 1653.6 kPa, m2 = 1.006 | 0.0002471
313.15 K, 2111.8 kPa, m2 = 1.285 | 0.0002306
313.15 K, 2538.3 kPa, m2 = 1.615 | 0.0002177
313.15 K, 3188.6 kPa, m2 = 2.11 | 0.0001995
323.15 K, 465.7 kPa, m2 = 0.2272 | 0.0003063
323.15 K, 850.7 kPa, m2 = 0.4281 | 0.0002889
323.15 K, 1323.9 kPa, m2 = 0.6731 | 0.0002706
323.15 K, 1708.8 kPa, m2 = 0.8789 | 0.0002573
323.15 K, 2180.2 kPa, m2 = 1.152 | 0.0002419
323.15 K, 2704.6 kPa, m2 = 1.345 | 0.0002273
323.15 K, 3105.7 kPa, m2 = 1.546 | 0.0002172
333.15 K, 245.6 kPa, m2 = 0.1044 | 0.0003209
333.15 K, 519.1 kPa, m2 = 0.2209 | 0.0003096
333.15 K, 894.3 kPa, m2 = 0.3855 | 0.0002952
333.15 K, 1364.2 kPa, m2 = 0.6046 | 0.0002782
333.15 K, 1849.2 kPa, m2 = 0.8295 | 0.0002632
333.15 K, 2312.2 kPa, m2 = 1.051 | 0.0002501
333.15 K, 2799.2 kPa, m2 = 1.3 | 0.0002373
343.15 K, 474.1 kPa, m2 = 0.1783 | 0.0003165
343.15 K, 952.8 kPa, m2 = 0.3503 | 0.0003002
343.15 K, 1440.2 kPa, m2 = 0.553 | 0.0002849
343.15 K, 1937.6 kPa, m2 = 0.7557 | 0.0002707
343.15 K, 2453.7 kPa, m2 = 0.974 | 0.0002573
343.15 K, 2938.6 kPa, m2 = 1.181 | 0.0002461
343.15 K, 3446.9 kPa, m2 = 1.424 | 0.0002344
353.15 K, 502 kPa, m2 = 0.1643 | 0.0003208
353.15 K, 987.3 kPa, m2 = 0.3338 | 0.0003053
353.15 K, 1440.2 kPa, m2 = 0.4916 | 0.0002925
353.15 K, 1907.3 kPa, m2 = 0.6717 | 0.0002794
353.15 K, 2419.6 kPa, m2 = 0.8598 | 0.0002671
353.15 K, 2888.3 kPa, m2 = 1.037 | 0.0002567

S [hydrogen sulfide] + CCCCn1cc[n+](C)c1.O=S(=O)([O-])C(F)(F)F
Conditions | molar volume [m3/mol]
303.15 K, 172.6 kPa, m1 = 0.5717 | 0.0001972
303.15 K, 339.1 kPa, m1 = 1.141 | 0.000178
303.15 K, 491.8 kPa, m1 = 1.715 | 0.0001633
303.15 K, 691.5 kPa, m1 = 2.517 | 0.0001472
303.15 K, 857 kPa, m1 = 3.192 | 0.0001371
303.15 K, 1016.5 kPa, m1 = 3.857 | 0.0001282
303.15 K, 1178.1 kPa, m1 = 4.512 | 0.0001212
303.15 K, 1368.5 kPa, m1 = 5.449 | 0.0001129
303.15 K, 1494.2 kPa, m1 = 6.127 | 0.000108
313.15 K, 169.3 kPa, m1 = 0.4237 | 0.0002046
313.15 K, 392.6 kPa, m1 = 1.017 | 0.0001836
313.15 K, 605 kPa, m1 = 1.634 | 0.0001669
313.15 K, 813.7 kPa, m1 = 2.295 | 0.0001529
313.15 K, 1021.5 kPa, m1 = 3.03 | 0.0001406
313.15 K, 1244.6 kPa, m1 = 3.892 | 0.0001294
313.15 K, 1455.3 kPa, m1 = 4.807 | 0.00012
313.15 K, 1592.1 kPa, m1 = 5.49 | 0.0001142
323.15 K, 188 kPa, m1 = 0.3783 | 0.000208
323.15 K, 418.4 kPa, m1 = 0.874 | 0.0001897
323.15 K, 647.6 kPa, m1 = 1.409 | 0.0001741
323.15 K, 1041.4 kPa, m1 = 2.42 | 0.0001522
323.15 K, 1294 kPa, m1 = 3.138 | 0.0001407
323.15 K, 1501.2 kPa, m1 = 3.819 | 0.0001319
323.15 K, 1614.4 kPa, m1 = 4.192 | 0.0001272
333.15 K, 196.6 kPa, m1 = 0.3257 | 0.0002118
333.15 K, 459.2 kPa, m1 = 0.7804 | 0.0001944
333.15 K, 705.7 kPa, m1 = 1.237 | 0.0001803
333.15 K, 907.8 kPa, m1 = 1.635 | 0.00017
333.15 K, 1176.8 kPa, m1 = 2.188 | 0.0001581
333.15 K, 1400.8 kPa, m1 = 2.685 | 0.0001492
333.15 K, 1570.7 kPa, m1 = 3.114 | 0.0001426
343.15 K, 207.6 kPa, m1 = 0.279 | 0.0002154
343.15 K, 456.9 kPa, m1 = 0.6403 | 0.000201
343.15 K, 706.7 kPa, m1 = 1.021 | 0.0001882
343.15 K, 923.5 kPa, m1 = 1.369 | 0.0001783
343.15 K, 1176.5 kPa, m1 = 1.798 | 0.0001679
343.15 K, 1391.1 kPa, m1 = 2.179 | 0.0001599
343.15 K, 1632 kPa, m1 = 2.646 | 0.0001515
